Source: ChEMBL document CHEMBL1138337, “Bis-azaaromatic quaternary ammonium salts as antagonists at nicotinic receptors mediating nicotine-evoked dopamine release: An investigation of binding conformation” (2007)

Legend:
[1] = target: Neuronal acetylcholine receptor subunit alpha-7 (Rattus norvegicus) (UniProt Q05941); experiment: Displacement of [3H]MLA from alpha-7 nAChR expressed in rat brain membrane at 100 nM
[2] = target: Neuronal acetylcholine receptor; alpha4/beta2 (Rattus norvegicus) (UniProt P09483+P12390); experiment: Displacement of [3H]NIC from alpha-4-beta-2 nAChR expressed in rat brain membrane at 100 nM

Neuronal acetylcholine receptor subunit alpha-7 (Rattus norvegicus), sequence (Q05941 whole entry): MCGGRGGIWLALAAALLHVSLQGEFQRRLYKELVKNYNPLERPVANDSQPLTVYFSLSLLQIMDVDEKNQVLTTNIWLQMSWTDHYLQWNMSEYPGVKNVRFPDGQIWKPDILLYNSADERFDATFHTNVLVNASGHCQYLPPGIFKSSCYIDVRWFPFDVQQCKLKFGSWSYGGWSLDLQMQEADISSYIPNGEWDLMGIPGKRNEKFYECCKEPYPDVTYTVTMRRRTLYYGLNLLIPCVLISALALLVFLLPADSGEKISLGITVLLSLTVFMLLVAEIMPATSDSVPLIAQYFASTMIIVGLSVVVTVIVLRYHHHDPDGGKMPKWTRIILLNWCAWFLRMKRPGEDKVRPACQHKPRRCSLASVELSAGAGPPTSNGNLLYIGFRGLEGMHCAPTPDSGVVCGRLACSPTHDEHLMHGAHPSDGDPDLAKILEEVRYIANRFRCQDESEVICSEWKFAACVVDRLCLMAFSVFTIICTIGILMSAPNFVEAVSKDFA

| SMILES | inhibition [1] | inhibition [2] |
| --- | --- | --- |
| Cc1cccc[n+]1CCCC#Cc1cccc(C#CCCC[n+]2ccccc2C)c1 | 0% | 1.9% |
| Cc1ccc[n+](CCCC#Cc2ccccc2C#CCCC[n+]2cccc(C)c2)c1 | 0% | 3.9% |
| Cc1cc[n+](CCCC#Cc2ccccc2C#CCCC[n+]2ccc(C)cc2)cc1 | 5.4% | 2.5% |
| Cc1cc[n+](CCCCCc2ccccc2CCCCC[n+]2ccc(C)cc2)cc1 | 3.1% | 0% |
| Cc1cc[n+](CCCCCc2cccc(CCCCC[n+]3ccc(C)cc3)c2)cc1 | 3.5% | 4.6% |
| CN1CCC[C@H]1c1ccc[n+](CCCC#Cc2cccc(C#CCCC[n+]3cccc([C@@H]4CCCN4C)c3)c2)c1 | 2.6% | 3.1% |
| CN1CCC[C@H]1c1ccc[n+](CCCCCc2ccccc2CCCCC[n+]2cccc([C@@H]3CCCN3C)c2)c1 | 11% | 71% |
| Cc1cc[n+](CCC#Cc2ccc(C#CCC[n+]3ccc(C)cc3)cc2)cc1 | 2.7% | 8.9% |
| Cc1ccc[n+](CCCC#Cc2cccc(C#CCCC[n+]3cccc(C)c3)c2)c1 | 8% | 0.5% |
| Cc1ccc[n+](CCC#Cc2ccc(C#CCC[n+]3cccc(C)c3)cc2)c1 | 3.1% | 13% |
| Cc1cc[n+](CCCCc2ccc(CCCC[n+]3ccc(C)cc3)cc2)cc1 | 7.73% | 1.1% |
| Cc1ccc[n+](CCCCc2ccc(CCCC[n+]3cccc(C)c3)cc2)c1 | 7.41% | 4.33% |
| Cc1ccc[n+](CCCCCc2cccc(CCCCC[n+]3cccc(C)c3)c2)c1 | 6.24% | 3.5% |
| Cc1ccc[n+](CCCCCCCCCCCC[n+]2cccc(C)c2)c1 | 0% | 0% |
| CN1CCC[C@H]1c1ccc[n+](CCCC#Cc2ccccc2C#CCCC[n+]2cccc([C@@H]3CCCN3C)c2)c1 | 9.2% | 72% |
| Cc1cccc[n+]1CCCCCc1cccc(CCCCC[n+]2ccccc2C)c1 | 0% | 7.2% |
| Cc1ccc[n+](CCCCCc2ccccc2CCCCC[n+]2cccc(C)c2)c1 | 5.4% | 0% |
| CN1CCC[C@H]1c1ccc[n+](CCCCc2ccc(CCCC[n+]3cccc([C@@H]4CCCN4C)c3)cc2)c1 | 5.3% | 3.66% |
| Cc1cccc[n+]1CCCC#Cc1ccccc1C#CCCC[n+]1ccccc1C | 1.2% | 2.1% |
| Cc1cccc[n+]1CCCCCc1ccccc1CCCCC[n+]1ccccc1C | 7.6% | 0% |
| Cc1cccc[n+]1CCCCc1ccc(CCCC[n+]2ccccc2C)cc1 | 0.16% | 6.3% |
| Cc1cc[n+](CCCC#Cc2cccc(C#CCCC[n+]3ccc(C)cc3)c2)cc1 | 6.4% | 10% |
